The text below walks through data of US9676782B2, “Substituted pyrazolo[1,5-a]pyrazines as negative allosteric modulators of metabotropic glutamate receptor 3” (Vanderbilt University, priority 2014, dated 2017).

Assay [1] concerns Aβ-induced neurodegeneration. The settings on record: cited from earlier work.
The test system of assay [2] is central mGlu2 and mGlu3 receptors. Particulars: in vivo; cited from earlier work.
The next assay has as its system C57Bl6/J mice. Particulars: forced swim test; cited from earlier work.
A further assay relates to Helpless (H) mice. The settings on record: genetic model of depression; cited from earlier work.
The subject of a further assay is schizophrenic patients. Particulars: compared to placebo, P<0.001 at week 4; cited from earlier work.
The next assay has as its target rat mGlu3 (Rattus norvegicus (Rat), UniProt P31422). The assay is described as follows: mGlu3 Ca2+ flux assay. Type of assay: cell-based. The settings on record: for remaining activity at 30 µM: amplitude of response at 30 μM test compound as % of maximal response to glutamate, read-out: rat mGlu3 Glu max (%); for IC50: read-out: rat mGlu3 IC50. The procedure, abridged: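 This calcium mobilization assay used rat mGlu3 cells cultured overnight (37° C., 5% CO2) and read on the FDSS7000 after a 10 minute room-temperature incubation in 20 μL assay buffer. Each of 360 readings per well was divided by its initial value (F/F0). Potency came from fitting normalized responses against log concentration with an unconstrained 4 parameter logistic equation, weighting triplicate points equally.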

The subject of another assay is mGlu4. Nature of the assay: mGlu selectivity assay: effect of a single concentration on the glutamate concentration-response curve. The class given is cell-based. Particulars: tested at 10 μM. The source says: (§1) Selectivity versus other mGlus can also be assessed by evaluating the effect of a single concentration of compound on the glutamate concentration-response curve (CRC) in cell lines expressing the mGlu of interest.

For a further assay, the system named is mGlu1. Described as above. The class given is cell-based. The settings on record: tested at 10 μM.
Text: as §1

The next assay concerns mGlu2. Described as above. The settings on record: tested at 10 μM. The class given is cell-based.
Text: as §1

In another assay the test system is mGlu7. The description is as above. Type of assay: cell-based. The settings on record: tested at 10 μM.
Text: as §1

The subject of the next assay is mGlu8. The assay is described as above. Type of assay: cell-based. The settings on record: tested at 10 μM.
Text: as §1

The target of another assay is mGlu6 (Homo sapiens (Human), UniProt O15303). Described as above. Type of assay: cell-based. Particulars: tested at 10 μM.
Sequence of mGlu6 (O15303 25-877): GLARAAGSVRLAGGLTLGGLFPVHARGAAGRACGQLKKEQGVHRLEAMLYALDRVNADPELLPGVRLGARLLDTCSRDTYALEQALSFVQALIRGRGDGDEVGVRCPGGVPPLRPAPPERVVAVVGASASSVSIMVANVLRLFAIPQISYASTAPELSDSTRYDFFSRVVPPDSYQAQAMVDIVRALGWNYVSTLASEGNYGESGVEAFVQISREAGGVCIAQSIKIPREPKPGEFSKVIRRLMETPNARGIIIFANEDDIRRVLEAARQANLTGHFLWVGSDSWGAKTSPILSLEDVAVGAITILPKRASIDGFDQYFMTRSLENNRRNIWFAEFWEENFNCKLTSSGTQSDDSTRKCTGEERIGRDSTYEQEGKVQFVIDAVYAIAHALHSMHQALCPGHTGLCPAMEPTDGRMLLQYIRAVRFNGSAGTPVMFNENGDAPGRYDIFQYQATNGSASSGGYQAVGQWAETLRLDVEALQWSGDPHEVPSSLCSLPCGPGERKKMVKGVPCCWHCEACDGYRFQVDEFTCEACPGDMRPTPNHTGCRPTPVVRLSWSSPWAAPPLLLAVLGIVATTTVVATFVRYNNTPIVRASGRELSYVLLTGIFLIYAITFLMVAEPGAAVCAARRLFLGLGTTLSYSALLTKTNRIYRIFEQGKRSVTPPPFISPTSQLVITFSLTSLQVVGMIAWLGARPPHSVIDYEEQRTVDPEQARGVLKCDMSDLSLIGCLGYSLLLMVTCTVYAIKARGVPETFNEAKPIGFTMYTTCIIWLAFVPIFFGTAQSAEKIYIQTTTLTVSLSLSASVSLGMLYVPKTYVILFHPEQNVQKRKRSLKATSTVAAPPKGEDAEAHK
Text: as §1

The target of another assay is rat mGlu5 (Rattus norvegicus (Rat), UniProt P31424). Nature of the assay: mGlu5 Ca2+ flux assay. The settings on record: for Fold selectivity (mGlu3 vs. mGlu5): ratio of rat mGlu5 EC50 or IC50 to rat mGlu3 IC50; for EC50: read-out: rat mGlu5 EC50 or IC50; for Emax at 30 µM: PAM, amplitude of response at 30 μM test compound as % of maximal response to glutamate, read-out: rat mGlu5 Glu max (%). Type of assay: cell-based. A digest of the protocol:
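Ca2+ flux read kinetically (FDSS7000) after overnight culture at 37° C/5% CO2 and a 5 min room-temperature buffer step following dye removal. Signals expressed per well as F/F0 and normalized to peak glutamate response; EC50 fitted by free 4-parameter logistic, three replicates per concentration equally weighted.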

For another assay, the system named is cultured astrocytes. The settings on record: cited from earlier work.
Assay [3] relates to tumors injected into nude mice. Particulars: compared with controls; cited from earlier work.
For a further assay, the system named is glioma stem cells (GSC). Particulars: in vitro; cited from earlier work.
Where [4] appears, read: NAM potency, decrease of glutamate EC80 response, >30,000 = no measurable activity, >10,000 = no plateau.

Where two headings read alike, the source gives them in different places. Some results are limits rather than exact numbers.

Sequence of rat mGlu5 (P31424 21-1203): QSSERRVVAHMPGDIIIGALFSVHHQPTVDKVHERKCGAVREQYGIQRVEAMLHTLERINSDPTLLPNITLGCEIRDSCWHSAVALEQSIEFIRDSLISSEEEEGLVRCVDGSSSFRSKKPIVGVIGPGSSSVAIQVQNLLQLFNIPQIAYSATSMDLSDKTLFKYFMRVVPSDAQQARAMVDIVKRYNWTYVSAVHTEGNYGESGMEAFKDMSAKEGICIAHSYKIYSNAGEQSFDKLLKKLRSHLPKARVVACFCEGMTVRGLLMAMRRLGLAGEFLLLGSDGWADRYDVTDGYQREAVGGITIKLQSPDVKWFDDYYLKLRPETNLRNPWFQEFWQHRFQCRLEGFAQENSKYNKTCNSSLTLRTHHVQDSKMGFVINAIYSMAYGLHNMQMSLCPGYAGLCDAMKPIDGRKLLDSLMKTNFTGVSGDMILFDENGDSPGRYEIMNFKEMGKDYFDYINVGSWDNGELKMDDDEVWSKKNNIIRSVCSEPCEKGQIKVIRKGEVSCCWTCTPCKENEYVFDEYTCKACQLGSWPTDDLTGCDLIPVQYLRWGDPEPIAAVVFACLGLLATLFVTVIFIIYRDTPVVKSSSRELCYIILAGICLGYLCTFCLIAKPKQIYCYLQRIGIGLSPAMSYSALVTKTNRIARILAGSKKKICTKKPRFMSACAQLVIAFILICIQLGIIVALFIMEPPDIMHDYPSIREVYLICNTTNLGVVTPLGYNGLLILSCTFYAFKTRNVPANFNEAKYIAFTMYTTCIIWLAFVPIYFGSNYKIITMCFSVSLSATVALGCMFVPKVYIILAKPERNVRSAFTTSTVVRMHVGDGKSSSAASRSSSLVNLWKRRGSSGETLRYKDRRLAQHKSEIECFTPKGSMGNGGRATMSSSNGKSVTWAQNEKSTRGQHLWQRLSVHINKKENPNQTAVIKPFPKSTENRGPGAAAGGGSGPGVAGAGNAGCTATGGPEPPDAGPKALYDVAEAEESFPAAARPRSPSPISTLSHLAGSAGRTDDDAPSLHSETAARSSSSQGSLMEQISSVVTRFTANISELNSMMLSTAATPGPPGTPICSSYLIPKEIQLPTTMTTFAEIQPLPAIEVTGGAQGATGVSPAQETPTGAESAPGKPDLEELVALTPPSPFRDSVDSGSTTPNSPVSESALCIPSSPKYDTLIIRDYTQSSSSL
Sequence of rat mGlu3 (P31422 23-879): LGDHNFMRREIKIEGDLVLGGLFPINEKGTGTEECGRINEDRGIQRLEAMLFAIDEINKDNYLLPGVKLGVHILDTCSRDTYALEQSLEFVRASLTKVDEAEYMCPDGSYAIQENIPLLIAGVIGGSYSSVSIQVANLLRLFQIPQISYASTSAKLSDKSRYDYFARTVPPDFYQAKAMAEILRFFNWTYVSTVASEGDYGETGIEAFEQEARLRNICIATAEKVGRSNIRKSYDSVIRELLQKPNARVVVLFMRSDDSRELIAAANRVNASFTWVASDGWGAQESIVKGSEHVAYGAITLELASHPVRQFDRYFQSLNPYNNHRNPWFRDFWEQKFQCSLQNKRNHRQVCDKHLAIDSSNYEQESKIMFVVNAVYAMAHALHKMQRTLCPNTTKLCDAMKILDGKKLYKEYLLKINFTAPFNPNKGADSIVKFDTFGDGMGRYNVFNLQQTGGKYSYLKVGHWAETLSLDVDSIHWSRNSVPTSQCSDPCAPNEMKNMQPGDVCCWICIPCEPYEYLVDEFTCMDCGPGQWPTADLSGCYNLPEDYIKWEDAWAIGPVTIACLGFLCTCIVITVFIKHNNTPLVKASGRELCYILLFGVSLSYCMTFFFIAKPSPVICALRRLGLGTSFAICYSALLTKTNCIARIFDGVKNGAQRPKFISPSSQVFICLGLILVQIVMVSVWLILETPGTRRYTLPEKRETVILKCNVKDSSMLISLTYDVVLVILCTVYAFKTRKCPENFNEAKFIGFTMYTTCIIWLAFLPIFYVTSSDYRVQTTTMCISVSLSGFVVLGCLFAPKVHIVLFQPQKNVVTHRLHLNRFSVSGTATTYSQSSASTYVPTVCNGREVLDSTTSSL

Take `CCS(=O)(=O)N(Cc1cccnc1)c1cccc(-c2ccc(C#N)cc2)c1` [LY566332]: the “effect on Aβ-induced neurodegeneration” value in [1] is “amplified Aβ-induced neurodegeneration”.

For the molecule `Cc1cc(-c2cccc(C3=Nc4cc(C)c(C(F)(F)F)cc4NC(=O)C3)c2)cc(C)n1` [RO4491533], the “reversal of hypolocomotor effect of LY379268” value in assay [2] was “reversed the hypolocomotor effect”. The immobility time entry in the assay with C57Bl6/J mice is recorded as “dose-dependently reduced immobility time”. Further, in the assay with Helpless (H) mice, the “activity in the tail suspension test” value was “active”.

Consider `N[C@@]1(C(=O)O)CS(=O)(=O)[C@H]2[C@H](C(=O)O)[C@H]21` [LY404039], for which the “positive and negative symptoms of schizophrenia” value in the assay with schizophrenic patients is “statistically significant improvements in both positive and negative symptoms”.

In the case of `N#CCc1ccc(NCc2cc3n(n2)CCN(c2ccc(F)cc2)C3=O)cc1` [Compound 26, 2-(4-(((5-(4-fluorophenyl)-4-oxo-4,5,6,7-tetrahydropyrazolo[1,5-a]pyrazin-2-yl)methyl)amino)phenyl)acetonitrile], at rat mGlu3, the remaining activity at 30 µM turned out to be 1.01% and the IC50 came to 0.89 µM. The “activity against mGlu4” value with mGlu4 is “inactive”. Besides, in the assay on mGlu1, the “activity against mGlu1” value was “inactive”. Besides, the “activity against mGlu2” value in the assay with mGlu2 is “inactive”. The “activity against mGlu7” value with mGlu7 is “inactive”. Besides, the “activity against mGlu8” value in the assay on mGlu8 was “inactive”. Besides, the “activity against mGlu6” value on mGlu6 was “inactive”. On rat mGlu5, the “Fold selectivity (mGlu3 vs. mGlu5)” value is on record as more than 33 and the EC50 is more than 30 µM.

As to `N[C@@]1(C(=O)O)CO[C@H]2[C@H](C(=O)O)[C@H]21` [LY379268], the sAPPα release entry with cultured astrocytes is recorded as “incremented sAPPα release”. Further, in assay [1], the “effect on Aβ-induced neurodegeneration” value is recorded as “neuroprotective activity”.

`COc1ccc(N(C)Cc2cc3n(n2)CCN(c2ccc(F)cc2)C3=O)cc1` [Compound 92, 5-(4-fluorophenyl)-2-(((4-methoxyphenyl)(methyl)amino)methyl)-6,7-dihydropyrazolo[1,5-a]pyrazin-4(5H)-one]: the IC50 on rat mGlu3 (setting [4]) is 0.986 µM. Further, the remaining activity at 30 µM on rat mGlu3 was 1.39%. Also, the “activity against mGlu4” value with mGlu4 was “inactive”. In addition, in the assay on mGlu1, the “activity against mGlu1” value was “inactive”. Also, the “activity against mGlu2” value in the assay with mGlu2 was “inactive”. Besides, the “activity against mGlu7” value in the assay with mGlu7 was “inactive”. Moreover, in the assay on mGlu8, the “activity against mGlu8” value is “inactive”. Also, the “activity against mGlu6” value on mGlu6 is “inactive”. Moreover, on rat mGlu5, the “Fold selectivity (mGlu3 vs. mGlu5)” value is recorded as more than 30 and the EC50 is more than 30 µM.

Take `CN(Cc1cc2n(n1)CCN(c1ccc(F)cc1)C2=O)c1cc(F)cc(F)c1` [Compound 94, 2-(((3,5-difluorophenyl)(methyl)amino)methyl)-5-(4-fluorophenyl)-6,7-dihydropyrazolo[1,5-a]pyrazin-4(5H)-one]: the concentration for half-maximal inhibition (IC50) on rat mGlu3 (setting [4]) was found to be 0.66 µM. Besides, on rat mGlu3, the remaining activity at 30 µM was 1.58%. Besides, on rat mGlu5, the Emax at 30 µM is 29.9%, the “Fold selectivity (mGlu3 vs. mGlu5)” value is reported as more than 15 and the EC50 was more than 10 µM.

With `O=C1c2cc(CNc3c(F)cccc3F)nn2CCN1c1ccc(F)cc1` [Compound 32, 2-(((2,6-difluorophenyl)amino)methyl)-5-(4-fluorophenyl)-6,7-dihydropyrazolo[1,5-a]pyrazin-4(5H)-one], at rat mGlu3 (setting [4]), the IC50 stood at 1.05 µM. In addition, at rat mGlu3, the remaining activity at 30 µM came out at 1.25%. On rat mGlu5, the Emax at 30 µM worked out at 84.1%, the “Fold selectivity (mGlu3 vs. mGlu5)” value stood at 8.41 and the EC50 was found to be 8.83 µM.

In the case of `C[C@H]1CN(c2ccc(F)cc2)C(=O)c2cc(CNc3ccc(Cl)cc3)nn21` [Compound 61, (S)-2-(((4-chlorophenyl)amino)methyl)-5-(4-fluorophenyl)-7-methyl-6,7-dihydropyrazolo[1,5-a]pyrazin-4(5H)-one], the IC50 on rat mGlu3 (setting [4]) was 1.31 µM. At rat mGlu3, the remaining activity at 30 µM turned out to be 2.22%. Further, on rat mGlu5, the Emax at 30 µM turned out to be 80.3%, the “Fold selectivity (mGlu3 vs. mGlu5)” value is reported as 4.69 and the EC50 was 6.15 µM.

On to `COc1ccc(NCc2cc3n(n2)[C@@H](C)CN(c2ccc(F)cc2)C3=O)cc1` [Compound 63, (S)-5-(4-fluorophenyl)-2-(((4-methoxyphenyl)amino)methyl)-7-methyl-6,7-dihydropyrazolo[1,5-a]pyrazin-4(5H)-one], for which the IC50 on rat mGlu3 (setting [4]) was 8.37 µM. Further, the remaining activity at 30 µM at rat mGlu3 is -0.6%. For the same molecule, on rat mGlu5, the “Fold selectivity (mGlu3 vs. mGlu5)” value was more than 3.5 and the EC50 was more than 30 µM.

Turning to `N[C@](CC1c2ccccc2Oc2ccccc21)(C(=O)O)[C@H]1C[C@@H]1C(=O)O` [LY341495], in assay [3], the “growth rate of tumors” value is “reduced” and the volume of tumors entry is on record as “reduced”. Also, in the assay on glioma stem cells (GSC), the proliferation rates entry was “decreased in a time-dependent manner” and the “proportion of cells in S phase” value is on record as “decreased in a time-dependent manner”. For the same molecule, the “reversal of hypolocomotor effect of LY379268” value in assay [2] is “achieved the same result”. Further, in the assay with C57Bl6/J mice, the immobility time result is on record as “dose-dependently reduced immobility time”. The “effect on Aβ-induced neurodegeneration” value in [1] is “prevented”. Also, the “activity in the tail suspension test” value with Helpless (H) mice is “active”.
